80 compounds from the METLIN SMRT retention time set (Domingo-Almenara et al. 2019) can be followed below.

Molecules are shown by their SMILES.

This data set in a line: gradient 5% acetonitrile 3 min, to 50% in 2 min, to 85% in 15 min, held 3 min, 100 µL/min. To be noted: column: Zorbax Extend-C18 2.1 x 50 mm; eluents: water / acetonitrile, 0.1% formic acid. A digest of the protocol:
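Retention times come from adduct peaks that were picked computationally and then checked by hand. The standards, pure and pooled in mixtures of ~100 molecules, were run on a Zorbax Extend-C18 column (2.1 × 50 mm, 1.8 μm) at 100 μL/min with water and acetonitrile, each with 0.1% formic acid. Detection was by quadrupole time-of-flight mass spectrometry in positive and negative ionization mode, with a dead volume of 40 μL and a dwell volume of 900 μL.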
Compound `CCC(C)NC(=O)c1cc(COc2ccc(NC(=O)C(C)C)cc2)on1` (stereo not given) displayed an RP-LC retention time of 776 s.
Regarding `CCc1ccc(NC(=O)Cn2nc(N3CCC(C)CC3)c3ccccc3c2=O)cc1`, the RP-LC retention time is 1100 s.
`O=C(O)c1ccc2c(c1)n(Cc1cccc(F)c1)c(=O)c1ccnn12` registered an RP-LC retention time of 784 s.
`O=C(Cc1ccccc1)NC1CCN(c2cc(-c3cccs3)[nH]n2)C1` (stereo not given) showed an RP-LC retention time of 741 s.
In turn, `O=C(NC1CCCc2ccccc21)c1ccc2c(c1)OCCCO2` (stereo not given) showed an RP-LC retention time of 958 s.
To `CCc1nn2c(CNS(=O)(=O)Cc3ccccc3Cl)c(-c3ccccc3)nc2s1` belongs 1010 s; to `CS(=O)(=O)N(C1CCOCC1)C1CCN(C(=O)c2ccc(Cl)cc2)CC1`, 840 s.
The value for `CC(=O)NC(Cc1c[nH]c2ccccc12)C(=O)O` (stereo not given) was 605 s; that for `O=C(NCc1ccccc1)N1CCCC1c1nc(-c2ccccc2)n[nH]1` (stereo not given) was 731 s; that for `Cn1cc(C(=O)N2CCCC2Cc2noc(C3CCCC3)n2)cn1` (stereo not given) was 750 s.
With `Cc1ccc(-c2nc3ncccn3c2Nc2cc(C)cc(C)c2)cc1`, the RP-LC retention time stood at 866 s.
To `COc1ncc(C(=O)NC2CCC(C)CC2)cn1` (stereo not given) belongs 748 s; to `CC(NC(=O)c1ccco1)c1nc(-c2ccc(-c3csc(-c4ccccc4)n3)cc2)no1` (stereo not given), 1200 s.
With `NC(=O)C1CCN(C(=O)CCCn2c(=O)c3cccn3c3ccc(Br)cc32)CC1`, the RP-LC retention time came out at 685 s.
To `O=C(Nc1ccc(F)cc1)C1CCCN(S(=O)(=O)Cc2ccc(F)cc2)C1` (stereo not given) belongs 933 s.
The value for `C[C@H]1C[C@H]2[C@@H]3CCC4=CC(=O)C=C[C@]4(C)[C@H]3C(=O)C[C@]2(C)[C@@]1(O)C(=O)CO` was 775 s.
Take `CC(C)(CO)NCc1ccc(-c2ccc(Cl)cc2Cl)o1`: the RP-LC retention time was found to be 685 s.
To `O=C(/C=C/c1cccnc1)/C=C/c1cccnc1` belongs 635 s; to `COc1cc(CNC(=O)C2CCN(c3nc(C4CCC4)nc4csc(C)c34)CC2)cc(OC)c1`, 748 s; to `CN1CCN(C(=O)c2cn(-c3cc(N4CCSCC4)ncn3)cn2)CC1`, 593 s.
To `CCn1ccc2cc(S(=O)(=O)N3CCCC(C(=O)NCCC(C)C)C3)ccc21` (stereo not given) belongs 980 s.
To `CCCN(CC1CCOC1)C(=O)Nc1ccccc1C` (stereo not given) belongs 768 s; to `O=C(c1cccc(Cl)c1)N1CCN(c2cc(-c3cccs3)[nH]n2)CC1`, 816 s; to `O=C(Nc1nccs1)C1CCN(C(=O)C2CC(=O)N(c3ccccc3)C2)CC1` (stereo not given), 658 s.
Compound `CC(C)N(CCC(=O)c1ccc2ccccc2c1)Cc1ccccc1` showed an RP-LC retention time of 859 s.
The value for `CC(C)COc1cc(=O)n2c(c1C(=O)NCCCn1cccn1)CCCCC2` was 659 s; that for `O=C1CC(c2noc(-c3cccc(Cl)c3)n2)CN1c1ccc(F)cc1` (stereo not given) was 1030 s; that for `O=c1c2cc(-c3cccs3)nn2ccn1Cc1noc(CN2CCCCCCC2)n1` was 688 s.
The value for `O=C(Cc1cccs1)NCCS(=O)(=O)N1CCN(c2ncccn2)CC1` was 653 s; that for `O=C([C@@H]1C[C@H](F)CN1S(=O)(=O)c1cccs1)N1CCc2ccccc2C1` was 830 s; that for `CCCN1CCCCc2cc(C(=O)NCC(C)C)sc21` was 1100 s.
To `CNCCc1cnc(CCC(c2ccccc2)c2ccccc2)[nH]1` belongs 608 s; to `CC(C)CN1CCn2cc(S(=O)(=O)NCc3ccc(F)cc3Cl)cc2C1=O`, 838 s.
Take `CCc1ccccc1NC(=O)Cn1nc2nc(N3CCCC(C)C3)ccn2c1=O` (stereo not given): the RP-LC retention time was determined as 838 s.
As for `COc1ccc(-c2nc3cc(C)ccn3c2NC(=O)CC(C)C)cc1`, the RP-LC retention time is 628 s.
The value for `O=C(Nc1ccccc1)N1CC(Oc2cccc(-c3nc(-c4ccccc4)no3)c2)C1` was 1160 s; that for `CCN(CC)S(=O)(=O)N1CCC(C(=O)NCCc2ccc(OC)c(OC)c2)CC1` was 751 s.
`COc1ccc(NC(=O)Cn2cnc3nc4c(cc3c2=O)CCCC4)c(OC)c1` registered an RP-LC retention time of 709 s.
The compound `CC(=O)Nc1ccc(NC(=O)c2cccc(N3C(=O)NC4CC3(C)Oc3ccccc34)c2)cc1` (stereo not given) came in with an RP-LC retention time of 702 s.
The value for `O=C(CN1C(=O)C2CCCCN2c2ccc(C(=O)N3CCCCC3)cc21)NC1CCCC1` (stereo not given) was 828 s; that for `O=C(Nc1ccc(Br)cc1F)Nc1c(-c2ccc(F)cc2)nc2ccccn12` was 744 s; that for `Cc1ccc(-c2nc(C)c(C(=O)NC3CC3)s2)cc1` was 888 s.
For the compound `COc1ccc(C(=O)Nc2c(C(=O)Nc3ccccc3OC)oc3cccnc23)cc1`, the RP-LC retention time came to 783 s.
The value for `COC(=O)C(CCSC)NC(=O)c1cc2c(n(-c3ccc(Cl)cc3)c1=O)CC(C)(C)CC2=O` (stereo not given) was 1040 s.
In turn, `CC(C)(C)c1cc(NC(=O)COc2ccccc2F)n(CCO)n1` yielded an RP-LC retention time of 759 s.
To `O=C(c1cc2ccccc2[nH]1)N1CC2CN(S(=O)(=O)c3cccc(F)c3)CC(C1)O2` belongs 862 s.
As to `Cc1cc(=O)n(CC(=O)Nc2ccc(C)c(C)c2)c(N2CCCC2)n1`, the RP-LC retention time stood at 668 s.
To `COC(=O)C1=C(NC(=O)c2cccc(F)c2)CCS1` belongs 964 s; to `CSc1cccc(NC(=O)C2CCN(c3cnc4nc(C)c(C)nc4c3)CC2)c1`, 758 s.
To `Cn1ccc2c(cc(C(=O)N3CCN(c4ccc(F)cc4)CC3)n2C)c1=O` belongs 689 s; to `Cc1c(Cl)cccc1NC(=O)Cn1cnc2c(sc3nc(-c4ccccc4)ccc32)c1=O`, 1070 s.
`NC(=O)C1CCN(C(=O)Cc2cc(-c3ccc(F)cc3)on2)CC1` yielded an RP-LC retention time of 630 s.
As for `CC(C)CNC(=O)CCc1nc2ccccc2n(CC(=O)Nc2ccc(C(C)C)cc2)c1=O`, the RP-LC retention time worked out at 949 s.
To `COc1ccc(NC(=O)Cc2c(C)nn(-c3nc(C)cs3)c2C)cc1` belongs 873 s; to `CC1CCCCN1CCNC(=O)CN1CCN(C(=O)Nc2ccc(Br)cc2)CC1=O` (stereo not given), 610 s; to `O=C(NCc1ccccn1)C1c2ccccc2C(=O)N(C2CCCC2)C1c1cccs1` (stereo not given), 709 s.
To `Cc1cccc(NC(=O)Cn2c(=O)n(-c3ccc(F)cc3)c3ncccc32)c1C` belongs 880 s; to `CCNC(=O)NCCc1cn(CC(C)C)c2ncccc12`, 631 s; to `COCCc1noc(C2CN(S(=O)(=O)c3ccc(C#N)cc3)C2)n1`, 768 s.
To `Cc1cccc(CNC(=O)c2ccc3c(c2)CC(=O)N3C)c1` belongs 742 s; to `O=C(NC1CCCCCC1)C1CCCN(S(=O)(=O)c2c[nH]c(C(=O)N3CCCC3)c2)C1` (stereo not given), 815 s; to `Cc1cc(NC(=O)Cn2c(-c3ccc(F)cc3)ncc(C#N)c2=O)ccc1Br`, 1080 s.
Compound `COc1ccc(NC(=O)c2cn3c(n2)CCCC3)c(OC)c1` displayed an RP-LC retention time of 610 s.
The compound `CCN(CC)S(=O)(=O)c1ccc2c(c1)N(CC(=O)NCc1cccc(C)c1)C(=O)C1CCCCN21` (stereo not given) gave an RP-LC retention time of 686 s.
Consider `CCc1ccc(CNC(=O)C2=C3CCCN3c3ccc(F)cc3S2(=O)=O)cc1`, for which the RP-LC retention time amounted to 996 s.
Compound `Cn1ncc2c(Nc3cccc(Cl)c3)nc(N3CCN(C4CCCCC4)CC3)nc21` gave an RP-LC retention time of 751 s.
For `COc1ccc(-c2nc3ncccn3c2NCc2ccc(C)cc2)cc1OC`, the RP-LC retention time came to 709 s.
The value for `O=C(Cn1cnc2nc(N3CCC(C(=O)NC4CC4)CC3)sc2c1=O)Nc1ccc(F)cc1` was 655 s.
In turn, `COCCOCc1nc(C2CCN(S(=O)(=O)c3cc(F)ccc3F)CC2)no1` had an RP-LC retention time of 806 s.
To `O=C(NCc1nc(-c2ccccc2)no1)c1csc(-n2cccc2)n1` belongs 894 s; to `CCOC(=O)c1csc(NC(=O)C2CCCN2S(C)(=O)=O)n1` (stereo not given), 649 s; to `COc1cccc(C(=O)N2CCc3nc[nH]c3C2)c1OC`, 555 s.
To `C=CCn1c(C)c(CC(=O)Nc2cccc(C)c2)c(=O)n2nc(-c3ccc(C)cc3)nc12` belongs 989 s.
For the compound `CCc1nn2c(N3CCN(c4cccc(C)n4)CC3)cc(C)nc2c1-c1ccccc1`, the RP-LC retention time turned out to be 1100 s.
`Cc1cc(C)cc(NC(=O)Cn2c(=O)n(-c3ccc(F)cc3)c(=O)c3c2cc(C)n3C)c1` had an RP-LC retention time of 879 s.
To `CCCc1ccc(S(=O)(=O)N2CCc3c(c(-c4nnc(-c5ccccc5)o4)nn3C)C2)cc1` belongs 1090 s.
Take `O=C1COc2c1ccc(O)c2O`: the RP-LC retention time amounted to 623 s.
The compound `O=C(Cn1c(=O)n(C2CCCCC2)c2ncccc21)NCc1cccnc1` displayed an RP-LC retention time of 603 s.
The value for `O=C(CN1C(=O)CC(c2ccccc2)=Nc2cccnc21)Nc1ccc(F)cc1F` was 949 s.
`COc1cc2c(C(=O)OCCc3ccccn3)cn(-c3ccccc3)c(=O)c2cc1OC` returned an RP-LC retention time of 670 s.
